Data reported in paper PMC7281150, “Inspired by Sea Urchins: Warburg Effect Mediated Selectivity of Novel Synthetic Non-Glycoside 1,4-Naphthoquinone-6S-Glucose Conjugates in Prostate Cancer” (Marine Drugs, 2020).
Where two headings read alike, the source gives them in different places.

Columns and labels:
[1] = tested on: 22Rv1 cells; assay: Western blotting of protein expression; format: cell-based, human; settings: 22Rv1, 48 h
Description: Cells (10^6 cells/well) were seeded in Petri dishes (ø 6 cm) and incubated overnight. The cells were treated with the investigational drugs in fresh culture media (5 mL/dish) for 48 h. Then, cells were harvested by scratching and lysed in the lysis buffer (1% NP-40, 50 mM Tris-HCl (pH 7.6), 0.88% NaCl, 0.25% sodium cholate, 1 mM Na3VO4, 0.1 mM PMSF, protease inhibitors cocktail (cOmplete Mini EDTA-free EASYpacks, Roche, Mannheim, Germany)). Proteins were extracted and diluted with lysis buffer and loading dye, heated 5 min at 99 °C and subjected to electrophoresis in gradient Mini-PROTEAN® TGX Stain-Free^TM gels (Bio-Rad, Hercules, CA, USA). Proteins were transferred from gel to 0.2 µm pore PVDF membrane using Trans-Blot® Turbo^TM RTA Mini PVDF Trans kit (Bio-Rad) and Trans-Blot® Turbo^TM Blotting System (Bio-Rad) according to the manufactures protocol. The membrane was blocked (5% BSA in 0.05% Tween-20/TBS), treated with primary and secondary antibodies, and the signals were detected using the ECL chemiluminescence system (Thermo Scientific, Rockford, IL, USA). All procedures were performed according to the manufacturer′s protocols.

[2] = tested on: human drug-resistant prostate cancer PC-3 cells; assay: MTT cytotoxicity in PC-3 cells; format: cell-based; settings: for IC50: 24 h, read-out: IC50 (viability of PC-3 cells)
Description: (§1) Cell viability was determined by MTT assay. Cells were pre-incubated overnight in 96-well plates (6 × 10^3 cells/well in 100 μL/well). Then, the medium was replaced with fresh medium containing the determined compounds (100 μL/well), and cells were incubated for the indicated time. Next, 10 μL/well of (3-(4,5-dimethylthiazol-2-yl)-2,5-diphenyltetrazolium bromide) reagent were added. After 2–4 h of incubation, the media was aspirated and the plates were dried. Fifty microliters per well of DMSO were added to each well and the cell viability was measured using Infinite F200PRO reader (TECAN, Männedorf, Switzerland). Results were calculated by The GraphPad Prism software v. 7.05 (GraphPad Prism software Inc., La Jolla, CA, USA) and are represented as IC50 of the compounds against control cells treated with the solvent alone.

[3] = tested on: 22Rv1 cells; assay: Analysis of cell cycle progression and DNA fragmentation (PI staining, FACS); format: cell-based, human; settings: 22Rv1, 48 h
Description: Cells (2 × 10^5 cells/well) were pre-incubated overnight in 6-well plates. Then, cells were treated with the substances in 2 mL of fresh culture media/well for 48 h. Cells were harvested by trypsination, fixed in 70% EtOH, stained with PI, and analyzed by FACS Calibur (BD Bioscience, San Jose, CA, USA). The results were quantified using BD Bioscience Cell Quest Pro v.5.2.1. software (BD Bioscience, San Jose, CA, USA). The sub-G1 population was considered to reflect apoptotic cells (containing fragmented DNA).

[4] = tested on: 22Rv1 cells; assay: Analysis of mitochondrial membrane potential (JC-1, FACS); format: cell-based, human
Description: The drop down of mitochondrial membrane potential (ΔΨm) was measured using staining with ΔΨm-sensitive JC-1 dye (5,5′,6,6′-Tetrachloro-1,1′,3,3′-tetraethyl-imidacarbocyanine iodide) and flow cytometry technique. Cells (10^5 cells/well) were seeded in 12-well plates and incubated overnight. […] The cells were trypsinized, pelleted, resuspended in 100 µL of 2 µM JC-1/PBS, incubated for 1 h (37 °C, 5% CO2, in the dark), and analyzed by flow cytometry technique.

[5] = tested on: PC-3 cells; assay: Glucose uptake assay (2-NBDG), FACS-based readout; format: cell-based, human; settings: PC-3, 24 h
Description: (§2) The effects of the synthesized substance on glucose uptake were evaluated using the Glucose Uptake Cell-Based Assay Kit (Cayman chemicals, Ann Arbor, MI, USA) and two different methods. (a) Plate reader-based measurement: PC-3 cells (12 × 10^3 cells/well) were seeded in two 96-well plates, incubated overnight, and treated with the investigated drugs in 100 µL/well of glucose-free 0.1% FBS/RPMI media for 24 h. Then, the 10 µL/well of either 2-NBDG solution (2-deoxy-2-[(7-nitro-2,1,3-benzoxadiazol-4-yl)amino]-D-glucose, 5 mg/mL, for glucose uptake measurements) or vehicle solution (for cell viability measurements) in glucose-free 0.1% FBS/RPMI media were added to each well. […] Then, for glucose uptake measurements, the 100 µL/well of PBS were added and the fluorescence was measured using Infinite F200PRO reader (TECAN, Männedorf, Switzerland); or, for the cell viability measurements, 100 µL/well of media containing MTS reagent were added to the cells and viability was measured as described before. Glucose uptake rate was normalized to the cell viability measured by MTS assay in order to measure the uptake rate exclusively in the viable cells. (b) FACS-based readout: The experiment was performed as described before. […] The plates were then incubated with 2-NBDG solution, the cells were harvested by trypsination, washed, stained with PI, and analyzed using a flow cytometry.

[6] = tested on: PC-3 cells; assay: Glucose uptake assay (2-NBDG), plate reader-based measurement; format: cell-based, human; settings: PC-3, 24 h
Description: as §2

[7] = tested on: 22Rv1 cells; assay: Analysis of intracellular ROS level (CM-H2DCFDA, FACS); format: cell-based, human; settings: 2 h
Description: Intracellular ROS levels were accessed using the ROS-sensitive CM-H2DCFDA reagent (Cat. No. C6827, Molecular probes, Invitrogen, Eugene, OR, USA). The experiment was performed as previously described with slight modifications. In brief, 22Rv1 cells (10^5 cells/well) were seeded in 12-well plates and incubated overnight. The media was changed with freshly made pre-warmed staining solution (4 µM CM-H2DCFDA/PBS, 0.5 mL/well) and incubated in the dark (37 °C, 5% CO2) for 30 min. Then, the staining solution was exchanged with 1 mL/well of pre-warmed PBS containing the investigated compounds or H2O2 (positive control) at the indicated concentrations and the cells were incubated for 2 h. Next, the cells were trypsinized, resuspended in pre-warmed PBS (200 µL/sample) and immediately analyzed by FACS according to the manufacture′s protocol.

[8] = tested on: 22Rv1 cells; assay: MTT cytotoxicity in 22Rv1 cells with or without N-acetyl-L-cysteine; format: cell-based, human; settings: without NaC, FBS- and glucose-free media, 48 h, read-out: IC50 (viability of 22Rv1 cells)
Description: as §1

[9] = tested on: PC-3 cells; format: cell-based, human; settings: PC-3, zVAD 100 µM, 48 h
[10] = tested on: five prostate cancer (LNCaP, 22Rv1, VCaP, PC-3, and DU145) vs. five non-cancer (PNT2, RWPE-1, HEK 293T, MRC-9, and HUVEC) cell lines; assay: Mean MTT cytotoxicity in five prostate cancer vs. five non-cancer cell lines; format: cell-based, human; settings: 48 h
Description: as §1

Q: What does the source list for “6-(6-Deoxy-D-glucopyranos-6-ylthio)-5,8-dihydroxy-7-methyl-2,3-dimethoxy-1,4-naphthoquinone [SAB-14]”?
A: cleavage of caspase-3 (Western blotting) [1]: cleavage of caspase-3 was observed; p21 expression (Western blotting) [1]: upregulation of p21; PARP cleavage (Western blotting) ([1]; concentrations close to IC50s): PARP cleavage; selectivity index (SI), IC50 (PNT2)/IC50 (PC-3) ([2]; MTT, 48 h): > 2; IC50 ([2]; glucose-containing media (+Glc, 2 g/L)): 22.6 ± 7.3 µM; IC50 ([2]; glucose-free media (−Glc)): 4.7 ± 1.4 µM; DNA fragmentation (sub-G1 peak) [3]: DNA fragmentation; cell cycle progression [3]: G2/M-cell cycle arrest; cells containing depolarized mitochondria (JC-1) ([4]; 22Rv1, 10 μM, 2 h): 20.4±3.6%; cells containing depolarized mitochondria (JC-1) ([4]; 22Rv1, 10 μM, 48 h): 47±1.0%; glucose uptake (2-NBDG, single cells by flow cytometry), normalized to cell viability [5]: inhibition of glucose uptake; glucose uptake (2-NBDG, plate reader), normalized to cell viability [6]: inhibition of glucose uptake; ROS level (CM-H2DCFDA, FACS) ([7]; 22Rv1, 5 μM): 9.9±0.4%; IC50 [8]: 4.6 ± 2.9 µM; effect of co-treatment with pan-caspase inhibitor zVAD on cytotoxic effects [9]: antagonized the cytotoxic effects; selectivity to prostate cancer cells vs. non-cancer lines (mean cytotoxicity) [10]: higher selectivity to the cancer cells

Q: For `N#CC(C#N)=NNc1cccc(Cl)c1` [CCCP, 2-[2-(3-chlorophenyl)hydrazinylyidene]propanedinitrile, reference compound], which “cells containing depolarized mitochondria (JC-1)” value ([4]; 22Rv1, 50 µM, 2 h) is on record?
A: 94±0.3%

Q: What about the “cells containing depolarized mitochondria (JC-1)” value ([4]; 22Rv1, 50 µM, 48 h) of the same molecule?
A: 92.1±1.8%

Q: Which “ROS level (CM-H2DCFDA, FACS)” value ([7]; 22Rv1, 200 μM) does the source give for `OO` [H2O2, reference compound] here?
A: 68.4±1.5%

Q: For `CC(=O)O[C@@H]1O[C@H](CSC2=CC(=O)c3c(O)c(C)c(C)c(O)c3C2=O)[C@@H](OC(C)=O)[C@H](OC(C)=O)[C@H]1OC(C)=O` [SAB-1, 2-(1,2,3,4-Tetra-O-acetyl-6-deoxy-β-D-glucopyranos-6-ylthio)-5,8-dihydroxy-6,7-dimethyl-1,4-naphthoquinone], which melting point is on record?
A: 203 to 205 °C

Q: With `CC(=O)O[C@@H]1O[C@H](CSc2c(C)c(O)c3c(c2O)C(=O)C(O)=C(O)C3=O)[C@@H](OC(C)=O)[C@H](OC(C)=O)[C@H]1OC(C)=O` [SAB-3, 6-(1,2,3,4-Tetra-O-acetyl-6-deoxy-β-D-glucopyranos-6-ylthio)-2,3,5,8-tetrahydroxy-7-methyl-1,4-naphthoquinone] as the molecule, how does the melting point read?
A: 207 to 211 °C

Q: For `COc1c(O)c2c(c(O)c1SC[C@H]1O[C@@H](OC(C)=O)[C@H](OC(C)=O)[C@@H](OC(C)=O)[C@@H]1OC(C)=O)C(=O)C(O)=CC2=O` [SAB-5, 7-(1,2,3,4-Tetra-O-acetyl-6-deoxy-β-D-glucopyranos-6-ylthio)-2,5,8-trihydroxy-6-methoxy-1,4-naphthoquinone], which melting point is on record?
A: 109 to 112 °C

Q: For `CC(=O)O[C@@H]1O[C@H](CSC2=C(C)C(=O)c3c(O)cccc3C2=O)[C@@H](OC(C)=O)[C@H](OC(C)=O)[C@H]1OC(C)=O` [SAB-7, 2-(1,2,3,4-Tetra-O-acetyl-6-deoxy-β-D-glucopyranos-6-ylthio)-5-hydroxy-3-methyl-1,4-naphthoquinone], which melting point is on record?
A: 160 to 161 °C

Q: Which melting point does the source give for `CC(=O)O[C@@H]1O[C@H](CSC2=C(SC[C@H]3O[C@@H](OC(C)=O)[C@H](OC(C)=O)[C@@H](OC(C)=O)[C@@H]3OC(C)=O)C(=O)c3c(O)c(C)c(C)c(O)c3C2=O)[C@@H](OC(C)=O)[C@H](OC(C)=O)[C@H]1OC(C)=O` [SAB-9, 2,3-Di(1,2,3,4-tetra-O-acetyl-6-deoxy-β-D-glucopyranos-6-ylthio)-5,8-dihydroxy-6,7-dimethyl-1,4-naphthoquinone] here?
A: 202 to 205 °C

Q: For `CCC1=C(O)C(=O)c2c(O)c(SC[C@H]3O[C@@H](OC(C)=O)[C@H](OC(C)=O)[C@@H](OC(C)=O)[C@@H]3OC(C)=O)c(OC)c(O)c2C1=O` [SAB-11, 7-(1,2,3,4-Tetra-O-acetyl-6-deoxy-β-D-glucopyranos-6-ylthio)-3-ethyl-2,5,8-trihydroxy-6-methoxy-1,4-naphthoquinone], which melting point is on record?
A: 167 to 171 °C

Q: With `CC(=O)O[C@@H]1O[C@H](CSc2c(C)c(O)c3c(c2O)C(=O)C(C)=C(C)C3=O)[C@@H](OC(C)=O)[C@H](OC(C)=O)[C@H]1OC(C)=O` [SAB-15, 6-(1,2,3,4-Tetra-O-acetyl-6-deoxy-β-D-glucopyranos-6-ylthio)-5,8-dihydroxy-2,3,7-trimethyl-1,4-naphthoquinone] as the molecule, how does the melting point read?
A: 148 to 151 °C

Q: For `CCc1c(O)c2c(c(O)c1SC[C@H]1O[C@@H](OC(C)=O)[C@H](OC(C)=O)[C@@H](OC(C)=O)[C@@H]1OC(C)=O)C(=O)C(C)=C(C)C2=O` [SAB-17, 6-(1,2,3,4-Tetra-O-acetyl-6-deoxy-β-D-glucopyranos-6-ylthio)-7-ethyl-5,8-dihydroxy-2,3-dimethyl-1,4-naphthoquinone], which melting point is on record?
A: 179 to 182 °C

Q: With `CC(=O)O[C@@H]1O[C@H](CSC2=C(Cl)C(=O)c3c(O)c(Cl)c(Cl)c(O)c3C2=O)[C@@H](OC(C)=O)[C@H](OC(C)=O)[C@H]1OC(C)=O` [SAB-19, 2-(1,2,3,4-Tetra-O-acetyl-6-deoxy-β-D-glucopyranos-6-ylthio)-3,6,7-trichloro-5,8-dihydroxy-1,4-naphthoquinone] as the molecule, how does the melting point read?
A: 156 to 159 °C

Q: With `CC(=O)O[C@@H]1O[C@H](CSC2=CC(=O)c3c(O)ccc(O)c3C2=O)[C@@H](OC(C)=O)[C@H](OC(C)=O)[C@H]1OC(C)=O` [SAB-21, 2-(1,2,3,4-Tetra-O-acetyl-6-deoxy-β-D-glucopyranos-6-ylthio)-5,8-dihydroxy-1,4-naphthoquinone] as the molecule, how does the melting point read?
A: 207 to 210 °C

Q: For `CC(=O)Oc1cccc2c1C(=O)C=C(SC[C@H]1O[C@@H](OC(C)=O)[C@H](OC(C)=O)[C@@H](OC(C)=O)[C@@H]1OC(C)=O)C2=O` [SAB-25, 2-(1,2,3,4-Tetra-O-acetyl-6-deoxy-β-D-glucopyranos-6-ylthio)-5-acetoxy-1,4-naphthoquinone], which melting point is on record?
A: 172 to 175 °C
